{
  "source": "patent US10945992B1",
  "about": "“Dosage forms of rofecoxib and related methods” (Tremeau Pharmaceuticals, Inc., priority 2019, dated 2021)",
  "key": {"[1]": {"assay": "LC-MS/MS method validation: stability of rofecoxib", "format": "physicochemical, human", "excerpt": "In order to support clinical studies with TRM-201 (rofecoxib), a method was developed for the determination of rofecoxib in human plasma by LC-MS/MS. This method was validated in accordance with the FDA Good Laboratory Practice Regulations (GLP) as set forth in Title 21 of the U S. Code of Federal Regulations Part 58 as well as FDA Guidance for Industry: Bioanalytical Method Validation, May 2018."}, "[2]": {"biological_target": "cyclooxygenase-1 (COX-1) isoenzyme (Homo sapiens, UniProt P23219)", "sequence (P23219 24-599)": "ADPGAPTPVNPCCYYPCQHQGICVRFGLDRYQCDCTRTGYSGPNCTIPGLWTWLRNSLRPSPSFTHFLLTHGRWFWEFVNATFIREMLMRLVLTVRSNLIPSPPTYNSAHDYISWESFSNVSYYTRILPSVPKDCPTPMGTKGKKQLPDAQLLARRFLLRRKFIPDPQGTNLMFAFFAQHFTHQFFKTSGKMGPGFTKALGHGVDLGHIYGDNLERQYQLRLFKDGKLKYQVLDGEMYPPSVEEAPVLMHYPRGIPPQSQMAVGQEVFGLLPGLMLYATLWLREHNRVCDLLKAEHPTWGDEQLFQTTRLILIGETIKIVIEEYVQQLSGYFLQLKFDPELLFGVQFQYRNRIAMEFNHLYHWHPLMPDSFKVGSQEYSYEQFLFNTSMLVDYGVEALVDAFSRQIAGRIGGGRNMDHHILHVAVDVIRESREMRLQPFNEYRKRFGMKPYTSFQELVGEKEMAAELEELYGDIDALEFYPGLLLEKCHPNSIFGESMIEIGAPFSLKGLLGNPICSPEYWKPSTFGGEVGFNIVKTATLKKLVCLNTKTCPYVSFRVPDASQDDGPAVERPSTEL", "settings": "at therapeutic concentrations; listed as rofecoxib; cited from earlier work"}, "[3]": {"settings": "cited from earlier work"}},
  "note": "Entries after “also recorded” stand apart in the source; their conditions may differ.",
  "data": [
    {"smiles": "CS(=O)(=O)c1ccc(C2=C(c3ccccc3)C(=O)OC2)cc1", "note": "[TRM-201, 4-[4-(methylsulfonyl)phenyl]-3-phenyl-2(5H)-furanone]", "values": [
      {"measurement": "Processed Sample Stability", "setting": "[1]; at 4° C.", "result": 174, "unit": "Hours at 4 °C"},
      {"measurement": "Stock Solution Stability in Dimethyl Sulfoxide", "setting": "[1]; at Ambient Temperature", "result": "17 Hours at Ambient Temperature"},
      {"measurement": "Benchtop Stability in Plasma", "setting": "[1]; at Ambient Temperature, human plasma", "result": "26 Hours at Ambient Temperature"},
      {"measurement": "Stock Solution Stability in Dimethyl Sulfoxide", "setting": "[1]; at −20° C.", "result": 202, "unit": "Days at −20 °C"},
      {"measurement": "Freeze/Thaw Stability in Plasma", "setting": "[1]; at −20° C. and −70° C.", "result": "5 Cycles at −20 °C and −70 °C"},
      {"measurement": "Long-term Storage Stability in Plasma", "setting": "[1]; at −20° C. and −70° C.", "result": "184 Days at −20 °C and −70 °C"},
      {"measurement": "Benchtop Stability in Whole Blood", "setting": "[1]; in an Ice Bath when Centrifuged at 4° C. or Ambient Temperature", "result": 2, "unit": "Hours in an Ice Bath when"},
      {"measurement": "inhibition of COX-1", "setting": "[2]", "result": "does not inhibit; also recorded: not cyclooxygenase 1 (COX-1)"},
      {"measurement": "incidence of gastrointestinal (GI) ulcers visualized at endoscopy compared to certain non-selective NSAIDs", "setting": "[3]; FDA 2005", "result": "reduction"},
      {"measurement": "risk of serious GI bleeding compared to a non-selective NSAID (naproxen)", "setting": "[3]; following chronic use, FDA 2005", "result": "reduce the risk"},
      {"measurement": "risk of serious adverse cardiovascular events compared to placebo", "setting": "[3]; long-term controlled clinical trial / FDA 2005", "result": "increased risk"}
    ]}
  ]
}
